This is an account of results in patent US11008334B2, “Compositions and methods for treating cancer” (The Regents of the University of California, priority 2012, dated 2021).

Read-outs that look alike come from different tables or passages of the source.

In assay [1] the target is T1, K-RasG12C (1-169) (Homo sapiens, UniProt P01116, G12C).
T1 construct: Un-tagged recombinant K-Ras G12C (1-169) at 4 μM in Buffer A; hexahistidine (cleaved yes); made in house; host or cells: Escherichia coli BL21 (DE)
Briefly: Disulfide library (tethering) screen, covalent modification by mass spectrometry. The format is binding. The note with it: 200 micM BME; read-out: Potency/ Labeling (EC50 at 200 micM BME) Tethering.

Assay [2] has as its target T1, K-RasG12C (1-169). Put plainly: Mass spectrometric screen for extent of covalent labeling. The note with it: for percent covalent labeling at 10 µM: 10 micromolar; for Labeling % (10 micM) 24h: 10 micM compound, (plate) or (single) measurement. The format is binding. On the procedure:
Un-tagged recombinant K-Ras G12C (1-169) at 4 μM in Buffer A was reacted with inhibitors at 200 μM or 10 μM (2% DMSO final). At 2, 6, and 24 hrs, 10 μL aliquots were removed and the reactions were stopped by addition of 1 μL 2% formic acid. The extent of modification was determined by mass spectrometry.

For assay [3], the system named is binding of RasGTP to Raf1-RBD. Put plainly: Raf1-RBD pull-downs. The note with it: after EDTA-catalyzed exchange.
Assay [4] relates to G12C cell lines. Put plainly: Proliferation of human lung cancer cell lines. The format is cell-based. The note with it: 24 hr treatment (0.5% FBS), 48 hr washout (10% FBS).
[5] abbreviates: 6 h, 6 hrs, read-out: Percent reduction in activity of compound at 10 micromolar relative to control (no compound), 6 hrs.
Setting [6] is: 24 h, 24 hrs, read-out: Percent reduction in activity of compound at 10 micromolar relative to control (no compound), 24 hrs.
Setting [7] is: 2 h, 2 hrs, read-out: Percent reduction in activity of compound at 10 micromolar relative to control (no compound), 2 hrs.

Regarding `O=C(NCCS)C1CCN(C(=O)COc2ccc(Cl)cc2Cl)CC1` [JO-01-148], in assay [1], the EC50 lay in the range of 40 to 60 µM.
With `C=CC(=O)N1CCN(C(=O)CNc2cc(I)c(Cl)cc2O)CC1` [Ras-083], the percent covalent labeling at 10 µM in assay [2] (setting [5]) was 20 to 40%; in assay [2] (setting [6]), over 60%. In addition, the “binding of RasGTP to Raf1-RBD” value in assay [3] is listed as “impairs binding of RasGTP to Raf1-RBD”. In assay [4], the “sensitivity of proliferation of G12C cell lines” value is listed as “significantly more sensitive”.
Regarding `C=CS(=O)(=O)NC1CCN(C(=O)COc2ncnc3sc(C)cc23)CC1` [UP-I-154K], the percent covalent labeling at 10 µM in assay [2] (setting [7]), in assay [2] (setting [5]) and in assay [2] (setting [6]) was at most 5% in each case.
With `C=CS(=O)(=O)NC1CCN(C(=O)CSc2nc3cc(C)ccc3[nH]2)CC1` [UP-I-160B], the percent covalent labeling at 10 µM in assay [2] (setting [7]), in assay [2] (setting [5]) and in assay [2] (setting [6]) was at most 5% throughout.
As to `C=CS(=O)(=O)NC1CCN(C(=O)COc2c(Cl)cc(Cl)cc2NC(=O)OC(C)(C)C)CC1` [UP-I-162B], the percent covalent labeling at 10 µM in assay [2] (setting [7]), in assay [2] (setting [5]) and in assay [2] (setting [6]) was at most 5% in each case.
For the molecule `C=CS(=O)(=O)NC1CCN(C(=O)CSc2nnc(C)s2)CC1` [UP-I-164A], the percent covalent labeling at 10 µM in assay [2] (setting [7]), in assay [2] (setting [5]) and in assay [2] (setting [6]) was at most 5% in each case.
As for `C=CS(=O)(=O)NC1CCN(C(=O)CSc2nnc(C)o2)CC1` [UP-I-164B], the percent covalent labeling at 10 µM in assay [2] (setting [7]), in assay [2] (setting [5]) and in assay [2] (setting [6]) was at most 5% throughout.
Take `C=CS(=O)(=O)NC1CCN(C(=O)CSc2n[nH]c(C)n2)CC1` [UP-I-164C]: the percent covalent labeling at 10 µM in assay [2] (setting [7]), in assay [2] (setting [5]) and in assay [2] (setting [6]) was at most 5% in each case.
Regarding `C=CS(=O)(=O)NC1CCN(C(=O)COc2c(Cl)cc(Cl)cc2-c2ccno2)CC1` [UP-I-165B], the percent covalent labeling at 10 µM in assay [2] (setting [7]), in assay [2] (setting [5]) and in assay [2] (setting [6]) was at most 5% throughout.
As for `C=CS(=O)(=O)NC1CCN(C(=O)COc2ccc3nncn3n2)CC1` [UP-I-165C], the percent covalent labeling at 10 µM in assay [2] (setting [7]), in assay [2] (setting [5]) and in assay [2] (setting [6]) was at most 5% each time.
In the case of `C=CS(=O)(=O)NC1CCN(C(=O)CSc2nc(C)cs2)CC1` [UP-I-165D], the percent covalent labeling at 10 µM in assay [2] (setting [7]), in assay [2] (setting [5]) and in assay [2] (setting [6]) was at most 5% each time.
As for `C=CS(=O)(=O)NC1CCN(C(=O)COc2c(Cl)cc(Cl)c3c2OC(C)(C)O3)CC1` [UP-I-177C], the “Labeling % (10 micM) 24h” value in assay [2] and in assay [2] (Table 5) was “++++ (plate) (40% < ++++ <=60%)” throughout. Further, the percent covalent labeling at 10 µM is at most 5% in assay [2] (setting [7]), 5 to 20% in assay [2] (setting [5]) and 40 to 60% in assay [2] (setting [6]).
As to `C=CS(=O)(=O)NC1CCN(C(=O)COc2c(Br)cc(Br)c3c2OC(C)(C)O3)CC1` [UP-I-177D], the values for the percent covalent labeling at 10 µM in assay [2] (setting [7]), in assay [2] (setting [5]) and in assay [2] (setting [6]) were at most 5%, at most 5% and over 60%, respectively.
As to `C=CS(=O)(=O)NC1CCN(C(=O)CNc2c(Cl)cc(Cl)c3nsnc23)CC1` [UP-I-185a], the “Labeling % (10 micM) 24h” value in assay [2] and in assay [2] (Table 5) was “+++++ (single) (60% < +++++)” throughout. The percent covalent labeling at 10 µM is 5 to 20% in assay [2] (setting [7]), 20 to 40% in assay [2] (setting [5]) and over 60% in assay [2] (setting [6]).
Turning to `C=CS(=O)(=O)NC1CCN(C(=O)COc2c(N)cc(Cl)cc2Cl)CC1` [UP-I-185b], the results for the percent covalent labeling at 10 µM in assay [2] (setting [7]), in assay [2] (setting [5]) and in assay [2] (setting [6]) were at most 5%, at most 5% and 5 to 20%, respectively.
For the molecule `C=CS(=O)(=O)NC1CCN(C(=O)CNc2c(Cl)cc(Cl)c3nonc23)CC1` [UP-I-187], the results for the percent covalent labeling at 10 µM in assay [2] (setting [7]), in assay [2] (setting [5]) and in assay [2] (setting [6]) were at most 5%, at most 5% and 20 to 40%, respectively. For the same molecule, the “Labeling % (10 micM) 24h” value in assay [2] (Table 5) is reported as “+++ (single) (20%< +++ <=40%)”.
